In this experiment the target is T1, androgen receptor (AR-LBD) (Rattus norvegicus, UniProt P15207).
T1 construct: 5 μL of 2×AR-LBD/Fluoromone AL Red Complex contained in the kit; purchased Invitrogen
T1 sequence (P15207 651-882 limits assumed): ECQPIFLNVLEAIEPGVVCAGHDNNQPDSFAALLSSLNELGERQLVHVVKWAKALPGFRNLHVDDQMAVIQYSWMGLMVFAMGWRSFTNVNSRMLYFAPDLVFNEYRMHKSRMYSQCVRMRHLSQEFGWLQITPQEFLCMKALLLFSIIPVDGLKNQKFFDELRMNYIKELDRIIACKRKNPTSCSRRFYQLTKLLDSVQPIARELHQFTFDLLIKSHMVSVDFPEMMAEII
Kind of experiment: Evaluation of androgen receptor affinity (PolarScreen Androgen Receptor Competitor Assay Kit, Red; fluorescence polarization). The conditions noted are these: 22° C. for 5 hours, relative to binding rate of 1 μM DHT, read-out: AR affinity (pEC50) (converted). The essentials: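 Fluorescence polarization read-out after 5 h at 22° C of compound with a red-fluorophore-labelled AR-LBD complex. Displacement is scaled against 1 μM DHT, and the log reciprocal of the concentration reaching half that effect gives pEC50 via four-parameter curve fitting.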
For orientation: Fluorescence polarisation rises when a labelled molecule tumbles more slowly, as on binding a larger partner.

With `Cc1sc(N(Cc2ccccc2)c2ccc(S(C)(=O)=O)cc2)nc1C(=O)NS(C)(=O)=O` [Example 261, 2-(N-benzyl-4-methylsulfonyl-anilino)-5-methyl-N-methylsulfonyl-thiazole-4-carboxamide], the EC50 is 1.26 µM.
For the molecule `Cc1ccccc1CN(c1ccc(C#N)cc1)c1nc(C(=O)NS(C)(=O)=O)c(Br)s1` [Example 264, 5-bromo-2-[4-cyano-N-(o-tolylmethyl)anilino]-N-methylsulfonyl-thiazole-4-carboxamide], the EC50 was 0.158 µM.
Under `Cc1cccc(CN(c2ccc(C#N)cc2)c2nc(C(=O)NS(C)(=O)=O)c(Cl)s2)c1` [Example 266, 5-chloro-2-[4-cyano-N-(m-tolylmethyl)anilino]-N-methylsulfonyl-thiazole-4-carboxamide] stands 0.0316 µM; under `Cc1ccc(CN(c2ccc(C#N)cc2)c2nc(C(=O)NS(C)(=O)=O)c(Cl)s2)cc1` [Example 267, 5-chloro-2-[4-cyano-N-(p-tolylmethyl)anilino]-N-methylsulfonyl-thiazole-4-carboxamide], 0.0251 µM; under `Cc1nc(CN(c2ccc(C#N)cc2)c2nc(C(=O)NS(C)(=O)=O)c(Cl)s2)cs1` [Example 278, 5-chloro-2-[4-cyano-N-[(2-methylthiazol-4-yl)methyl]anilino]-N-methylsulfonyl-thiazole-4-carboxamide], 0.794 µM.
The same measure for `Cc1sc(N(c2ccc(C#N)cc2F)[C@@H](CO)Cc2ccccc2)nc1C(=O)NS(C)(=O)=O` [Example 287, 2-(N-[(1R)-1-benzyl-2-hydroxy-ethyl]-4-cyano-2-fluoro-anilino)-5-methyl-N-methylsulfonyl-thiazole-4-carboxamide]: greater than 2 µM.
The same measure for `Cc1sc(N(Cc2ccccc2)Cc2ccccc2)nc1C(=O)NS(C)(=O)=O` [Example 288, 2-(dibenzylamino)-5-methyl-N-methylsulfonyl-thiazole-4-carboxamide]: greater than 2 µM; for `Cc1sc(N(Cc2ccccc2)Cc2ccc(C#N)cc2)nc1C(=O)NS(C)(=O)=O` [Example 289, 2-[benzyl-[(4-cyanophenyl)methyl]amino]-5-methyl-N-methylsulfonyl-thiazole-4-carboxamide]: greater than 2 µM; for `Cc1sc(N(Cc2ccccc2)Cc2cccc(C#N)c2)nc1C(=O)NS(C)(=O)=O` [Example 290, 2-[benzyl-[(3-cyanophenyl)methyl]amino]-5-methyl-N-methylsulfonyl-thiazole-4-carboxamide]: greater than 2 µM.
For `Cc1sc(N(Cc2ccccc2)Cc2ccccc2C#N)nc1C(=O)NS(C)(=O)=O` [Example 291, 2-[benzyl-[(2-cyanophenyl)methyl]amino]-5-methyl-N-methylsulfonyl-thiazole-4-carboxamide], the EC50 is greater than 2 µM.
With `Cc1sc(N(C)Cc2ccccc2)nc1C(=O)NS(C)(=O)=O` [Example 292, 2-[benzyl(methyl)amino]-5-methyl-N-methylsulfonyl-thiazole-4-carboxamide], the EC50 is greater than 2 µM.
Under `Cc1sc(N(Cc2ccccc2)Cc2cccnc2)nc1C(=O)NS(C)(=O)=O` [Example 293, 2-[benzyl(3-pyridylmethyl)amino]-5-methyl-N-methylsulfonyl-thiazole-4-carboxamide] stands greater than 2 µM; under `Cc1sc(N(Cc2ccccc2)Cc2ccccn2)nc1C(=O)NS(C)(=O)=O` [Example 295, 2-[benzyl(2-pyridylmethyl)amino]-5-methyl-N-methylsulfonyl-thiazole-4-carboxamide], greater than 2 µM; under `Cc1sc(N(Cc2ccccc2)Cc2ccncc2)nc1C(=O)NS(C)(=O)=O` [Example 296, 2-[benzyl(4-pyridylmethyl)amino]-5-methyl-N-methylsulfonyl-thiazole-4-carboxamide], greater than 2 µM.
Under `Cc1sc(N(CCCc2ccccc2)Cc2ccccc2)nc1C(=O)NS(C)(=O)=O` [Example 297, 2-[benzyl(3-phenylpropyl)amino]-5-methyl-N-methylsulfonyl-thiazole-4-carboxamide] stands 0.501 µM; under `Cc1sc(N(CCC2CCOCC2)Cc2ccccc2)nc1C(=O)NS(C)(=O)=O` [Example 300, 2-[benzyl(2-tetrahydropyran-4-ylethyl)amino]-5-methyl-N-methylsulfonyl-thiazole-4-carboxamide], 0.398 µM.
Consider `Cc1sc(N(CCc2ccccc2C#N)Cc2ccccc2)nc1C(=O)NS(C)(=O)=O` [Example 302, 2-[benzyl-[2-(2-cyanophenyl)ethyl]amino]-5-methyl-N-methylsulfonyl-thiazole-4-carboxamide], for which the EC50 is 1.26 µM.
For the molecule `Cc1sc(N(Cc2ccccc2)CC2(c3ccccc3)CC2)nc1C(=O)NS(C)(=O)=O` [Example 304, 2-[benzyl-[(1-phenylcyclopropyl)methyl]amino]-5-methyl-N-methylsulfonyl-thiazole-4-carboxamide], the EC50 was greater than 2 µM.
The same measure for `COc1ccc(CCN(Cc2ccccc2)c2nc(C(=O)NS(C)(=O)=O)c(C)s2)cc1OC` [Example 307, 2-[benzyl-[2-(3,4-dimethoxyphenyl)ethyl]amino]-5-methyl-N-methylsulfonyl-thiazole-4-carboxamide]: greater than 2 µM; for `Cc1sc(N(CCn2cccc2)Cc2ccccc2)nc1C(=O)NS(C)(=O)=O` [Example 309, 2-[benzyl(2-pyrrol-1-ylethyl)amino]-5-methyl-N-methylsulfonyl-thiazole-4-carboxamide]: greater than 2 µM.
Under `Cc1ncsc1CCN(Cc1ccccc1)c1nc(C(=O)NS(C)(=O)=O)c(C)s1` [Example 311, 2-[benzyl-[2-(4-methylthiazol-5-yl)ethyl]amino]-5-methyl-N-methylsulfonyl-thiazole-4-carboxamide] stands greater than 2 µM; under `Cc1sc(N(CCc2ccc3ccccc3c2)Cc2ccccc2)nc1C(=O)NS(C)(=O)=O` [Example 312, 2-[benzyl-[2-(2-naphthyl)ethyl]amino]-5-methyl-N-methylsulfonyl-thiazole-4-carboxamide], 0.631 µM; under `Cc1sc(N(CCc2cccc3ccccc23)Cc2ccccc2)nc1C(=O)NS(C)(=O)=O` [Example 314, 2-[benzyl-[2-(1-naphthyl)ethyl]amino]-5-methyl-N-methylsulfonyl-thiazole-4-carboxamide], greater than 2 µM.
With `Cc1sc(N(CCc2c(Cl)cccc2Cl)Cc2ccccc2)nc1C(=O)NS(C)(=O)=O` [Example 316, 2-[benzyl-[2-(2,6-dichlorophenyl)ethyl]amino]-5-methyl-N-methylsulfonyl-thiazole-4-carboxamide], the EC50 is greater than 2 µM.
Regarding `Cc1sc(N(CCc2ccc(S(C)(=O)=O)cc2)Cc2ccccc2)nc1C(=O)NS(C)(=O)=O` [Example 317, 2-[benzyl-[2-(4-methylsulfonylphenyl)ethyl]amino]-5-methyl-N-methylsulfonyl-thiazole-4-carboxamide], the EC50 was 0.501 µM.
The same measure for `Cc1ccc(S(=O)(=O)n2cc(CCN(Cc3ccccc3)c3nc(C(=O)NS(C)(=O)=O)c(C)s3)c3ccccc32)cc1` [Example 318, 2-[benzyl-[2-[1-(p-tolylsulfonyl)indol-3-yl]ethyl]amino]-5-methyl-N-methylsulfonyl-thiazole-4-carboxamide]: greater than 2 µM; for `Cc1sc(N(CCC2CCN(C(=O)OC(C)(C)C)CC2)Cc2ccccc2)nc1C(=O)NS(C)(=O)=O` [Example 319, tert-butyl 4-[2-[benzyl-[5-methyl-4-(methylsulfonylcarbamoyl)thiazol-2-yl]amino]ethyl]piperidine-1-carboxylate]: greater than 2 µM.

For the origin of these results see patent US10689354B2, “Aminoazole derivative” (Teijin Pharma Limited, priority 2015, dated 2020).
